According to publication PMC8698377, “In Vitro Hepatic Assessment of Cineole and Its Derivatives in Common Brushtail Possums (Trichosurus vulpecula) and Rodents” (Biology, 2021):

system: CYP3A; assay: CYP3A catalytic activity (erythromycin-N-demethylation), possum hepatic microsomes; format: in vitro ADME, possum (Trichosurus vulpecula); conditions: 12.5 µM
Method: (§1) Microsomal preparation was as previously outlined. Individual livers were placed in beakers containing 1.15% KCl. All the procedures were carried out at 0–4 °C. The liver samples were minced and homogenised in buffer A (0.1 M Tris, 0.1 M potassium chloride, 1 mM EDTA, and 20 μM butylated hydroxytoluene, at pH = 7.4) using the Teflon-glass homogeniser (5–6 vertical passes). The samples were centrifuged for 20 min at 10,000× g. The supernatant was then transferred into another set of centrifuge tubes and spun for 60 min at 100,000× g. The pellet was resuspended in Buffer B (0.1 M potassium pyrophosphate, 1 mM EDTA, and 20 μM butylated hydroxytoluene, at pH = 7.4), homogenised and recentrifuged for 60 min at 100,000× g. Finally, the pellet was homogenised in 1–2 mL of Buffer C (10 mM Tris-HCl, 1 mM EDTA, and 4% glycerol (v/v)) and stored at […] until used. The protein concentration of the microsomes was determined using the Bicinchoninic acid (BCA) method.
(§2) CYP3A catalytic activity was determined using the erythromycin-N-demethylation activity assay as described previously. The reaction mixture (final volume of 1 mL and final protein concentration of 1 mg) contained 500 µL of microsomes in 0.1 M phosphate buffer (pH = 7.4), 400 µL of erythromycin buffer (0.45 mM), and 50 µL of the test compound was pre-warmed at 37 °C for 2 min. The reaction was initiated with 50 µL of 2.5 mM […] and incubated at 37 °C for 30 min (optimised incubation time). The reaction was stopped with the addition of 330 µL of 15% zinc sulphate. Tubes were vortexed and left for 5 min (at room temperature) and then 330 µL of saturated barium hydroxide was added. Tubes were further vortexed and left for 5 min (at room temperature). Tubes were then centrifuged at 1800 g for 10 min. To 830 µL of the supernatant, 330 µL of Nash reagent (30% (w/v) ammonium acetate, 0.4% (v/v) acetyl acetone) was added and further incubated at 60 °C for 30 min. The blank tube contained 330 µL of Nash reagent and 830 µL of Milli-Q-water. The tubes were centrifuged again at 1800× g for 10 min and the absorbance was read at 415 nm. Results presented are the mean ± SEM of 3 independent experiments conducted in duplicate.

Row | SMILES | CYP3A catalytic activity [nmol/mg/min] | CYP3A catalytic activity, % of Control [%]
1 | COC(=O)[C@H]1CC[C@H](C(=O)OC)CC1 [dimethyl-trans-cyclohexane-1,4-dicarboxylate] | 0.39 ± 0.02 | –
2 | CC12CCC(CC1=O)C2(C)C (stereo not drawn) [Camphor, camphor] | 0.40 ± 0.03 | –
3 | O=C(O)C1C2C=CC(C2)C1C(=O)O (stereo not drawn) [5-norbornen-2-endo-3-exo-dicarboxylic acid] | 0.39 ± 0.03 | 98.90 ± 0.73

same assay, conditions: 25 µM

Row | SMILES | CYP3A catalytic activity [nmol/mg/min] | CYP3A catalytic activity, % of Control [%]
4 | COC(=O)[C@H]1CC[C@H](C(=O)OC)CC1 [dimethyl-trans-cyclohexane-1,4-dicarboxylate] | 0.42 ± 0.03 | –
5 | CC12CCC(CC1=O)C2(C)C (stereo not drawn) [Camphor, camphor] | 0.41 ± 0.03 | –
6 | O=C(O)C1C2C=CC(C2)C1C(=O)O (stereo not drawn) [5-norbornen-2-endo-3-exo-dicarboxylic acid] | 0.38 ± 0.02 | 95.23 ± 3.85

same assay, conditions: possum (Trichosurus vulpecula), liver microsomes, pH 7.4, probe erythromycin, 12.5 µM, read-out: CYP3A catalytic activity, % of Control

Row | SMILES | activity at 30 min, 12.5 µM [%]
7 | COC(=O)[C@H]1CC[C@H](C(=O)OC)CC1 [dimethyl-trans-cyclohexane-1,4-dicarboxylate] | 102 ± 4.76
8 | CC12CCC(CC1=O)C2(C)C (stereo not drawn) [Camphor, camphor] | 102 ± 2.05

same assay, conditions: possum (Trichosurus vulpecula), liver microsomes, pH 7.4, probe erythromycin, 25 µM, read-out: CYP3A catalytic activity, % of Control

Row | SMILES | activity at 30 min, 25 µM [%]
9 | COC(=O)[C@H]1CC[C@H](C(=O)OC)CC1 [dimethyl-trans-cyclohexane-1,4-dicarboxylate] | 111 ± 6
10 | CC12CCC(CC1=O)C2(C)C (stereo not drawn) [Camphor, camphor] | 104 ± 2.57

system: CYP3A; assay: CYP3A catalytic activity (erythromycin-N-demethylation), rat hepatic microsomes; format: in vitro ADME; conditions: 12.5 µM
Method: as §1, §2

Row | SMILES | CYP3A catalytic activity [nmol/mg/min] | CYP3A catalytic activity, % of Control [%]
11 | COC(=O)[C@H]1CC[C@H](C(=O)OC)CC1 [dimethyl-trans-cyclohexane-1,4-dicarboxylate] | 0.64 ± 0.02 | –
12 | CC12CCC(CC1=O)C2(C)C (stereo not drawn) [Camphor, camphor] | 0.63 ± 0.03 | –
13 | O=C(O)C1C2C=CC(C2)C1C(=O)O (stereo not drawn) [5-norbornen-2-endo-3-exo-dicarboxylic acid] | 0.65 ± 0.10 | 107.52 ± 3.84

same assay, conditions: 25 µM

Row | SMILES | CYP3A catalytic activity [nmol/mg/min] | CYP3A catalytic activity, % of Control [%]
14 | COC(=O)[C@H]1CC[C@H](C(=O)OC)CC1 [dimethyl-trans-cyclohexane-1,4-dicarboxylate] | 0.73 ± 0.06 | –
15 | CC12CCC(CC1=O)C2(C)C (stereo not drawn) [Camphor, camphor] | 0.59 ± 0.04 | –
16 | O=C(O)C1C2C=CC(C2)C1C(=O)O (stereo not drawn) [5-norbornen-2-endo-3-exo-dicarboxylic acid] | 0.64 ± 0.09 | 105.30 ± 2.08

same assay, conditions: liver microsomes, pH 7.4, probe erythromycin, 12.5 µM, read-out: CYP3A catalytic activity, % of Control

Row | SMILES | activity at 30 min, 12.5 µM [%]
17 | COC(=O)[C@H]1CC[C@H](C(=O)OC)CC1 [dimethyl-trans-cyclohexane-1,4-dicarboxylate] | 102 ± 2.42
18 | CC12CCC(CC1=O)C2(C)C (stereo not drawn) [Camphor, camphor] | 101 ± 3.99

same assay, conditions: liver microsomes, pH 7.4, probe erythromycin, 25 µM, read-out: CYP3A catalytic activity, % of Control

Row | SMILES | activity at 30 min, 25 µM [%]
19 | COC(=O)[C@H]1CC[C@H](C(=O)OC)CC1 [dimethyl-trans-cyclohexane-1,4-dicarboxylate] | 116 ± 5.35
20 | CC12CCC(CC1=O)C2(C)C (stereo not drawn) [Camphor, camphor] | 95 ± 1.81

system: UGT; assay: p-nitrophenol glucuronidation, mouse hepatic microsomes; format: in vitro ADME; conditions: 12.5 µM
Method: as §1
(§3) The rate of p-nitrophenol glucuronidation was determined as previously reported. In short, the incubation mixture (500 µL in total) contained; 100 µL of 1 mg/mL microsomes, 50 µL of 1 M Tris-HCl (pH = 7.4), 20 µL of 0.25% (v/v) Triton-X 100, 50 µL of 50 mM MgCl2, 130 µL of double distilled water, 50 µL of 5 mM p-nitrophenol, 50 µL of the test compound, and 50 µL of uridine 5′-diphosphoglucuronic acid trisodium salt (UDPGA). The blank tubes had all components except UDPGA and microsomes; instead, 150 µL of 0.1 M phosphate buffer was added to equal the volume as the reaction mixture. The reaction mixture and the blank were incubated at 37 °C for 2 min. Then, 50 µL of 30 mM UDPGA was added to initiate the reaction which proceeded at 37 °C for 30 min (optimised incubation time). The reaction was stopped using 1 mL of 5% trichloroacetic acid (TCA). The tubes were centrifuged at 1800 g for 10 min and then 1 mL of supernatant was added to 250 µL of 2 M sodium hydroxide (NaOH). The absorbance was read at 405 nm. The sample reading was subtracted from the blank absorbance and divided by the extinction coefficient of p-nitrophenol ([…]) and the light path of the spectrophotometer (1 cm). The glucuronidation activities are expressed in µmol/mg/min and are the mean ± SEM of 3 independent experiments conducted in duplicate.

Row | SMILES | p-nitrophenol glucuronidation activity [µmol/mg/min] | p-nitrophenol glucuronidation, % of Control [%]
21 | COC(=O)[C@H]1CC[C@H](C(=O)OC)CC1 [dimethyl-trans-cyclohexane-1,4-dicarboxylate] | 2.43 ± 0.06 | 107.00 ± 0.42
22 | CC12CCC(CC1=O)C2(C)C (stereo not drawn) [Camphor, camphor] | 2.42 ± 0.08 | 104.80 ± 1.79
23 | O=C(O)C1C2C=CC(C2)C1C(=O)O (stereo not drawn) [5-norbornen-2-endo-3-exo-dicarboxylic acid] | 2.23 ± 0.09 | 107.16 ± 4.97

same assay, conditions: 25 µM

Row | SMILES | p-nitrophenol glucuronidation activity [µmol/mg/min] | p-nitrophenol glucuronidation, % of Control [%]
24 | COC(=O)[C@H]1CC[C@H](C(=O)OC)CC1 [dimethyl-trans-cyclohexane-1,4-dicarboxylate] | 2.73 ± 0.12 | 120.23 ± 8.23
25 | CC12CCC(CC1=O)C2(C)C (stereo not drawn) [Camphor, camphor] | 2.31 ± 0.09 | 100.10 ± 2.45
26 | O=C(O)C1C2C=CC(C2)C1C(=O)O (stereo not drawn) [5-norbornen-2-endo-3-exo-dicarboxylic acid] | 2.23 ± 0.10 | 107.42 ± 3.63

system: CYP3A; assay: CYP3A catalytic activity (erythromycin-N-demethylation), mouse hepatic microsomes; format: in vitro ADME; conditions: 12.5 µM
Method: as §1, §2

Row | SMILES | CYP3A catalytic activity [nmol/mg/min] | CYP3A catalytic activity, % of Control [%]
27 | COC(=O)[C@H]1CC[C@H](C(=O)OC)CC1 [dimethyl-trans-cyclohexane-1,4-dicarboxylate] | 0.72 ± 0.02 | –
28 | CC12CCC(CC1=O)C2(C)C (stereo not drawn) [Camphor, camphor] | 0.68 ± 0.02 | –
29 | O=C(O)C1C2C=CC(C2)C1C(=O)O (stereo not drawn) [5-norbornen-2-endo-3-exo-dicarboxylic acid] | 0.73 ± 0.04 | 96.48 ± 0.72

same assay, conditions: 25 µM

Row | SMILES | CYP3A catalytic activity [nmol/mg/min] | CYP3A catalytic activity, % of Control [%]
30 | COC(=O)[C@H]1CC[C@H](C(=O)OC)CC1 [dimethyl-trans-cyclohexane-1,4-dicarboxylate] | 0.77 ± 0.05 | –
31 | CC12CCC(CC1=O)C2(C)C (stereo not drawn) [Camphor, camphor] | 0.68 ± 0.03 | –
32 | O=C(O)C1C2C=CC(C2)C1C(=O)O (stereo not drawn) [5-norbornen-2-endo-3-exo-dicarboxylic acid] | 0.77 ± 0.03 | 101.88 ± 0.75

same assay, conditions: liver microsomes, pH 7.4, probe erythromycin, 12.5 µM, read-out: CYP3A catalytic activity, % of Control

Row | SMILES | activity at 30 min, 12.5 µM [%]
33 | COC(=O)[C@H]1CC[C@H](C(=O)OC)CC1 [dimethyl-trans-cyclohexane-1,4-dicarboxylate] | 100 ± 1.31
34 | CC12CCC(CC1=O)C2(C)C (stereo not drawn) [Camphor, camphor] | 97.1 ± 2.15

same assay, conditions: liver microsomes, pH 7.4, probe erythromycin, 25 µM, read-out: CYP3A catalytic activity, % of Control

Row | SMILES | activity at 30 min, 25 µM [%]
35 | COC(=O)[C@H]1CC[C@H](C(=O)OC)CC1 [dimethyl-trans-cyclohexane-1,4-dicarboxylate] | 106 ± 4.88
36 | CC12CCC(CC1=O)C2(C)C (stereo not drawn) [Camphor, camphor] | 96.3 ± 3.21

system: UGT; assay: p-nitrophenol glucuronidation, possum hepatic microsomes; format: in vitro ADME, possum (Trichosurus vulpecula); conditions: 12.5 µM
Method: as §1, §3

Row | SMILES | p-nitrophenol glucuronidation activity [µmol/mg/min] | p-nitrophenol glucuronidation, % of Control [%]
37 | COC(=O)[C@H]1CC[C@H](C(=O)OC)CC1 [dimethyl-trans-cyclohexane-1,4-dicarboxylate] | 3.96 ± 0.20 | 102.94 ± 4.63
38 | CC12CCC(CC1=O)C2(C)C (stereo not drawn) [Camphor, camphor] | 4.01 ± 0.33 | 102.42 ± 1.78
39 | O=C(O)C1C2C=CC(C2)C1C(=O)O (stereo not drawn) [5-norbornen-2-endo-3-exo-dicarboxylic acid] | 3.90 ± 0.23 | 100.53 ± 2.09

same assay, conditions: 25 µM

Row | SMILES | p-nitrophenol glucuronidation activity [µmol/mg/min] | p-nitrophenol glucuronidation, % of Control [%]
40 | COC(=O)[C@H]1CC[C@H](C(=O)OC)CC1 [dimethyl-trans-cyclohexane-1,4-dicarboxylate] | 3.92 ± 0.19 | 101.67 ± 0.92
41 | CC12CCC(CC1=O)C2(C)C (stereo not drawn) [Camphor, camphor] | 3.97 ± 0.33 | 101.32 ± 1.34
42 | O=C(O)C1C2C=CC(C2)C1C(=O)O (stereo not drawn) [5-norbornen-2-endo-3-exo-dicarboxylic acid] | 3.91 ± 0.20 | 100.86 ± 1.90

system: UGT; assay: p-nitrophenol glucuronidation, rat hepatic microsomes; format: in vitro ADME; conditions: 12.5 µM
Method: as §1, §3

Row | SMILES | p-nitrophenol glucuronidation activity [µmol/mg/min] | p-nitrophenol glucuronidation, % of Control [%]
43 | COC(=O)[C@H]1CC[C@H](C(=O)OC)CC1 [dimethyl-trans-cyclohexane-1,4-dicarboxylate] | 2.71 ± 0.13 | 90.77 ± 2.49
44 | CC12CCC(CC1=O)C2(C)C (stereo not drawn) [Camphor, camphor] | 2.62 ± 0.09 | 102.59 ± 1.43
45 | O=C(O)C1C2C=CC(C2)C1C(=O)O (stereo not drawn) [5-norbornen-2-endo-3-exo-dicarboxylic acid] | 2.85 ± 0.16 | 96.42 ± 1.23

same assay, conditions: 25 µM

Row | SMILES | p-nitrophenol glucuronidation activity [µmol/mg/min] | p-nitrophenol glucuronidation, % of Control [%]
46 | COC(=O)[C@H]1CC[C@H](C(=O)OC)CC1 [dimethyl-trans-cyclohexane-1,4-dicarboxylate] | 2.83 ± 0.20 | 94.83 ± 5.80
47 | CC12CCC(CC1=O)C2(C)C (stereo not drawn) [Camphor, camphor] | 2.72 ± 0.24 | 106.26 ± 6.99
48 | O=C(O)C1C2C=CC(C2)C1C(=O)O (stereo not drawn) [5-norbornen-2-endo-3-exo-dicarboxylic acid] | 2.92 ± 0.19 | 98.52 ± 2.14
